Measured values published in patent US12570642B2, “GLP-IR modulating compounds” (Gilead Sciences, Inc., priority 2021, dated 2026).

Target: GLP-1R (Homo sapiens, UniProt P43220)
Test: GLP-1R Activation - cAMP Assay
Type: cell-based
Conditions: cAMP increase in CHO cells stably expressing GLP-1R; each compound run on one of the two cAMP assays (Assay 1 or Assay 2, not specified)
Method in brief: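 CHO cells stably expressing GLP-1R, plated at 1,000 cells/well overnight, then equilibrated 1 h in HBSS with 20 mM Hepes and 0.1% BSA. Agonist added as 10-point dose response for 30 min at 37 °C. cAMP measured by HTRF (Cisbio Gs Dynamic kit); EC50 from sigmoidal fit.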

Sequence of GLP-1R (P43220 24-463): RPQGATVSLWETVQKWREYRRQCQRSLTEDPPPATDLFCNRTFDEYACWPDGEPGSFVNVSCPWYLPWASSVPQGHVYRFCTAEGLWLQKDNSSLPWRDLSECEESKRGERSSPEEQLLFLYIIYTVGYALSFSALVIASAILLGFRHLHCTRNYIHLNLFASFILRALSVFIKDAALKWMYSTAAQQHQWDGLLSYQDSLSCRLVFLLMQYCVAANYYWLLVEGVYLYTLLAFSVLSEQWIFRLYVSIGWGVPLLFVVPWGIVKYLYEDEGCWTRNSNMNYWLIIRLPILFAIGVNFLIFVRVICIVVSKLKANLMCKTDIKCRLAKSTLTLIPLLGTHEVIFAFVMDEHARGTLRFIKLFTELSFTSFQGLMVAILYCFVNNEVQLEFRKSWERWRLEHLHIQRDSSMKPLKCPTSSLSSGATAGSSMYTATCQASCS

Compound | EC50
CC[C@@H]1OCC[C@H]1n1c(Cc2cc(F)c(-c3cccc(OCc4ccc(C#N)cc4F)n3)cc2F)nc2ccc(C(=O)O)cc21 [Example 197, 2-(4-(6-((4-cyano-2-fluorobenzyl)oxy)pyridin-2-yl)-2,5-difluorobenzyl)-1-((2S,3R)-2-ethyltetrahydrofuran-3-yl)-1H-benzo[d]imidazole-6-carboxylic acid] | 6.62 nM
CC1(C)COC[C@H]1n1c(Cc2cc(F)c(-c3ccnc(OCc4ccc(C#N)cc4F)n3)cc2F)nc2ccc(C(=O)O)cc21 [Example 198, (S)-2-(4-(2-((4-cyano-2-fluorobenzyl)oxy)pyrimidin-4-yl)-2,5-difluorobenzyl)-1-(4,4-dimethyltetrahydrofuran-3-yl)-1H-benzo[d]imidazole-6-carboxylic acid] | 0.508 nM
N#Cc1ccc(COc2cccc(-c3cc(F)c(Cc4nc5ccc(C(=O)O)cc5n4C4COC5(COC5)C4)cc3F)n2)c(F)c1 (stereo not drawn) [Example 202, 2-(4-(6-((4-cyano-2-fluorobenzyl)oxy)pyridin-2-yl)-2,5-difluorobenzyl)-1-(2,5-dioxaspiro[3.4]octan-7-yl)-1H-benzo[d]imidazole-6-carboxylic acid] | 4.01 nM
N#Cc1ccc(COc2cccc(-c3cc(F)c(Cc4nc5ccc(C(=O)O)cc5n4C4COC5(CC5)C4)cc3F)n2)c(F)c1 (stereo not drawn) [Example 203, 2-(4-(6-((4-cyano-2-fluorobenzyl)oxy)pyridin-2-yl)-2,5-difluorobenzyl)-1-(4-oxaspiro[2.4]heptan-6-yl)-1H-benzo[d]imidazole-6-carboxylic acid] | 38.3 nM
CC1(C)COC[C@H]1n1c(Cc2cc(F)c(-c3cccc(OCc4cc(F)c(C#N)cc4F)n3)cc2F)nc2c(F)cc(C(=O)O)cc21 [Example 204, (S)-2-(4-(6-((4-cyano-2,5-difluorobenzyl)oxy)pyridin-2-yl)-2,5-difluorobenzyl)-1-(4,4-dimethyltetrahydrofuran-3-yl)-4-fluoro-1H-benzo[d]imidazole-6-carboxylic acid] | 0.09 nM
CC1(C)COC[C@H]1n1c(Cc2cc(F)c(-c3ccnc(OCc4ccc(C#N)cc4F)n3)cc2F)nc2c(F)cc(C(=O)O)cc21 [Example 205, (S)-2-(4-(2-((4-cyano-2-fluorobenzyl)oxy)pyrimidin-4-yl)-2,5-difluorobenzyl)-1-(4,4-dimethyltetrahydrofuran-3-yl)-4-fluoro-1H-benzo[d]imidazole-6-carboxylic acid] | 0.097 nM
Cc1cc(Cc2nc3c(F)cc(C(=O)O)cc3n2[C@@H]2COCC2(C)C)c(F)cc1-c1cccc(OCc2ccc(C#N)cc2F)n1 [Example 208, (S)-2-(4-(6-((4-cyano-2-fluorobenzyl)oxy)pyridin-2-yl)-2-fluoro-5-methylbenzyl)-1-(4,4-dimethyltetrahydrofuran-3-yl)-4-fluoro-1H-benzo[d]imidazole-6-carboxylic acid] | 0.249 nM
Cc1cc(Cc2nc3c(F)cc(C(=O)O)cc3n2[C@@H]2COCC2(C)C)c(F)cc1-c1ccnc(OCc2ccc(Cl)cc2)n1 [Example 211, (S)-2-(4-(2-((4-chlorobenzyl)oxy)pyrimidin-4-yl)-2-fluoro-5-methylbenzyl)-1-(4,4-dimethyltetrahydrofuran-3-yl)-4-fluoro-1H-benzo[d]imidazole-6-carboxylic acid] | 0.258 nM
Cc1cc(Cc2nc3c(F)cc(C(=O)O)cc3n2[C@@H]2COCC2(C)C)c(Cl)cc1-c1ccnc(OCc2ccc(Cl)cc2)n1 [Example 212, (S)-2-(2-chloro-4-(2-((4-chlorobenzyl)oxy)pyrimidin-4-yl)-5-methylbenzyl)-1-(4,4-dimethyltetrahydrofuran-3-yl)-4-fluoro-1H-benzo[d]imidazole-6-carboxylic acid] | 0.379 nM
COCCn1c(Cc2c(F)cc(-c3ccc(F)c(OCc4cnc(-n5ccnn5)cc4Cl)n3)c(F)c2F)nc2c(F)cc(C(=O)O)cc21 [Example 213, 2-(4-(6-((4-chloro-6-(1H-1,2,3-triazol-1-yl)pyridin-3-yl)methoxy)-5-fluoropyridin-2-yl)-2,3,6-trifluorobenzyl)-4-fluoro-1-(2-methoxyethyl)-1H-benzo[d]imidazole-6-carboxylic acid] | 0.042 nM
COCCn1c(Cc2cc(F)c(-c3cccc(OCc4cnc(-n5ccnn5)cc4Cl)n3)cc2F)nc2ccc(C(=O)O)cc21 [Example 214, 2-(4-(6-((4-chloro-6-(1H-1,2,3-triazol-1-yl)pyridin-3-yl)methoxy)pyridin-2-yl)-2,5-difluorobenzyl)-1-(2-methoxyethyl)-1H-benzo[d]imidazole-6-carboxylic acid] | 0.299 nM
COCCn1c(Cc2cc(F)c(-c3ccc(F)c(OCc4cnc(-n5ccnn5)cc4Cl)n3)cc2F)nc2ccc(C(=O)O)cc21 [Example 215, 2-(4-(6-((4-chloro-6-(1H-1,2,3-triazol-1-yl)pyridin-3-yl)methoxy)-5-fluoropyridin-2-yl)-2,5-difluorobenzyl)-1-(2-methoxyethyl)-1H-benzo[d]imidazole-6-carboxylic acid] | 0.21 nM
COCCn1c(Cc2cc(F)c(-c3cccc(OCc4ccc(-n5ccnn5)nc4)n3)cc2F)nc2c(F)cc(C(=O)O)cc21 [Example 221, 2-(4-(6-((6-(1H-1,2,3-triazol-1-yl)pyridin-3-yl)methoxy)pyridin-2-yl)-2,5-difluorobenzyl)-4-fluoro-1-(2-methoxyethyl)-1H-benzo[d]imidazole-6-carboxylic acid] | 0.508 nM

More lines, in order of falling EC50, values ahead:

EC50 | Compound
90.9 nM | CC1(C)CC(n2c(Cc3cc(F)c(-c4cccc(OCc5ccc(C#N)cc5F)n4)cc3F)nc3ccc(C(=O)O)cc32)C(C)(C)O1 (stereo not drawn) [Example 199, 2-(4-(6-((4-cyano-2-fluorobenzyl)oxy)pyridin-2-yl)-2,5-difluorobenzyl)-1-(2,2,5,5-tetramethyltetrahydrofuran-3-yl)-1H-benzo[d]imidazole-6-carboxylic acid]
14.1 nM | N#Cc1ccc(COc2cccc(-c3ccc(Cc4nc5ccc(C(=O)O)cc5n4[C@H]4CCOC4)c(F)c3)n2)c(F)c1 [Example 210, (S)-2-(4-(6-((4-cyano-2-fluorobenzyl)oxy)pyridin-2-yl)-2-fluorobenzyl)-1-(tetrahydrofuran-3-yl)-1H-benzo[d]imidazole-6-carboxylic acid]
12.3 nM | N#Cc1ccc(COc2cccc(-c3ccc(Cc4nc5ccc(C(=O)O)cc5n4[C@@H]4CCOC4)c(F)c3)n2)c(F)c1 [Example 209, (R)-2-(4-(6-((4-cyano-2-fluorobenzyl)oxy)pyridin-2-yl)-2-fluorobenzyl)-1-(tetrahydrofuran-3-yl)-1H-benzo[d]imidazole-6-carboxylic acid]
0.508 nM | CC1(C)COCC1n1c(Cc2cc(F)c(-c3ccnc(OCc4ccc(C(F)(F)F)cc4F)n3)cc2F)nc2c(F)cc(C(=O)O)cc21 (stereo not drawn) [Example 200, 2-(2,5-difluoro-4-(2-((2-fluoro-4-(trifluoromethyl)benzyl)oxy)pyrimidin-4-yl)benzyl)-1-(4,4-dimethyltetrahydrofuran-3-yl)-4-fluoro-1H-benzo[d]imidazole-6-carboxylic acid]
0.279 nM | Cc1cc(Cc2nc3ccc(C(=O)O)cc3n2[C@@H]2COCC2(C)C)c(Cl)cc1-c1ccnc(OCc2ccc(Cl)cc2)n1 [Example 218, (S)-2-(2-chloro-4-(2-((4-chlorobenzyl)oxy)pyrimidin-4-yl)-5-methylbenzyl)-1-(4,4-dimethyltetrahydrofuran-3-yl)-1H-benzo[d]imidazole-6-carboxylic acid]
0.216 nM | O=C(O)c1cc(F)c2nc(Cc3cc(F)c(-c4cccc(OCc5ccc(Cl)cc5F)n4)cc3F)n(C3COCC34CC4)c2c1 (stereo not drawn) [Example 220, 2-(4-(6-((4-chloro-2-fluorobenzyl)oxy)pyridin-2-yl)-2,5-difluorobenzyl)-4-fluoro-1-(5-oxaspiro[2.4]heptan-7-yl)-1H-benzo[d]imidazole-6-carboxylic acid]
0.191 nM | CC1(C)COC[C@H]1n1c(Cc2cc(F)c(-c3nccc(OCc4ccc(C#N)cc4F)n3)cc2F)nc2c(F)cc(C(=O)O)cc21 [Example 206, (S)-2-(4-(4-((4-cyano-2-fluorobenzyl)oxy)pyrimidin-2-yl)-2,5-difluorobenzyl)-1-(4,4-dimethyltetrahydrofuran-3-yl)-4-fluoro-1H-benzo[d]imidazole-6-carboxylic acid]
0.189 nM | Cc1cc(Cc2nc3ccc(C(=O)O)cc3n2[C@@H]2COCC2(C)C)c(F)cc1-c1ccnc(OCc2ccc(Cl)cc2)n1 [Example 219, (S)-2-(4-(2-((4-chlorobenzyl)oxy)pyrimidin-4-yl)-2-fluoro-5-methylbenzyl)-1-(4,4-dimethyltetrahydrofuran-3-yl)-1H-benzo[d]imidazole-6-carboxylic acid]
0.168 nM | Cc1cc(Cc2nc3c(F)cc(C(=O)O)cc3n2[C@@H]2COCC2(C)C)c(F)cc1-c1ccc(F)c(OCc2ccc(C#N)cc2F)n1 [Example 207, (S)-2-(4-(6-((4-cyano-2-fluorobenzyl)oxy)-5-fluoropyridin-2-yl)-2-fluoro-5-methylbenzyl)-1-(4,4-dimethyltetrahydrofuran-3-yl)-4-fluoro-1H-benzo[d]imidazole-6-carboxylic acid]
0.136 nM | COCCn1c(Cc2c(F)cc(-c3cccc(OCc4ccc(-n5ccnn5)cc4)n3)c(F)c2F)nc2c(F)cc(C(=O)O)cc21 [Example 222, 2-(4-(6-((4-(1H-1,2,3-triazol-1-yl)benzyl)oxy)pyridin-2-yl)-2,3,6-trifluorobenzyl)-4-fluoro-1-(2-methoxyethyl)-1H-benzo[d]imidazole-6-carboxylic acid]
0.028 nM | CC1(C)COC[C@H]1n1c(Cc2cc(F)c(-c3cccc(OCc4ccc(Cl)cc4F)n3)cc2F)nc2c(F)cc(C(=O)O)cc21 [Example 201, (S)-2-(4-(6-((4-chloro-2-fluorobenzyl)oxy)pyridin-2-yl)-2,5-difluorobenzyl)-1-(4,4-dimethyltetrahydrofuran-3-yl)-4-fluoro-1H-benzo[d]imidazole-6-carboxylic acid]
